We go through 5 molecules from patent US5663186A, “Treatment of atherosclerosis with angiotensin II receptor blocking imidazoles” (Merck & Co., Inc., priority 1995, dated 1997).

The test system of test [1] is conscious dogs. Briefly: Hypotensive effects and inhibition of AII pressor response before and after furosemide in conscious dogs. Format: in vivo, dog.
Test [2] concerns Renal Hypertensives Rats. Briefly: Antihypertensive effects in renal hypertensive rats (left renal artery ligation). Format: in vivo, rat. The method, then:
This procedure increases blood pressure by increasing renin production with consequent elevation of AII levels. Compounds are administered orally at 100 mg/kg and/or intravenously via a cannula in the jugular vein at 10 mg/kg. Arterial blood pressure is continuously measured directly through a carotid artery cannula and recorded using a pressure transducer and a polygraph. Blood pressure levels after treatment are compared to pretreatment levels to determine the antihypertensive effects of the compounds (See Table 1).
Compound listed in Table 2 was tested in the same manner as described for Table 1, except that in the test for antihypertensive effects in renal hypertensive rats, the compounds were administered orally at 30 mg/kg and intravenously at 3 mg/kg.

Test [3] concerns AII. The note with it: cited from earlier work.
Test [4] relates to dogs. The following applies: cited from earlier work.

Molecules are shown by their SMILES. Counter-ions that a name gives are not always drawn.

On to `NS(=O)(=O)c1cc(C(=O)O)c(NCc2ccco2)cc1Cl` [furosemide, reference compound], for which the “Plasma renin activity (PRA)” value in test [1] (dogs (three), furosemide 10 mg/kg im at 18 and 2 hours before, PRA four days earlier 1.5±0.5) amounted to 19.9±7.2 ng AI/ml/hr.

On to `CCCCc1nc(Cl)c(C(=O)O)n1Cc1ccc(-c2ccccc2-c2nnn[nH]2)cc1` [Compound 2, 2-n-butyl-4-chloro-1-[(2'-(tetrazol-5-yl)-1,1'-biphenyl-4-yl)-methyl]-1H-imidazole-5-carboxylic acid], for which the “Antihypertensive Effects in Renal Hypertensives Rats, Intravenous Activity” value in test [2] (intravenous, 3.0 mg/kg or less) is recorded as “+ (Significant decrease in blood pressure at 3.0 mg/kg or less)”. Further, the “Antihypertensive Effects in Renal Hypertensives Rats, Oral Activity” value in test [2] (oral, 30 mg/kg or less) is listed as “+ (Significant decrease in blood pressure at 30 mg/kg or less)”.

`CNCC(=O)N[C@@H](CCCN=C(N)N)C(=O)N[C@H](C(=O)N[C@@H](Cc1ccc(O)cc1)C(=O)N[C@H](C(=O)N[C@@H](Cc1cnc[nH]1)C(=O)N1CCC[C@H]1C(=O)N[C@@H](C)C(=O)O)C(C)C)C(C)C` [Saralasin, [Sar^1, Ala^8] AII]: the “lowering of arterial pressure” value in test [3] (mammals and man, when the (elevated) pressure is dependent on circulating AII) was “lower arterial pressure in mammals and man”. Also, in test [3] (oral doses), the oral effectiveness result is on record as “oral doses being ineffective”. Besides, the “duration of pharmacological effects” value in test [3] (parenteral administration) is “relatively short-lasting”. Further, the “antagonism of the actions of AII” value in test [3] (pithed rats) is “one of the most potent competitive antagonists of the actions of AII”. Besides, the “agonistic (pressor) effects” value in test [3] (when the pressure is not sustained by AII) is on record as “generally elicits pressor effects when the pressure is not sustained by AII”. The “effect on renal vasoconstrictor effect of indomethacin and meclofenamate” value in test [4] (dogs) was “inhibit the renal vasoconstrictor effect of indomethacin and meclofenamate”.

Take `CCCCc1nc(Cl)c(CO)n1Cc1ccc(-c2ccccc2-c2nnn[nH]2)cc1` [2-butyl-4-chloro-1-[2'-(1H-tetrazol-5-yl)biphenyl-4-yl)methyl]-5-hydroxymethylimidazole sodium salt]: the “inhibition of pressor response to AII after furosemide” value in test [1] (furosemide-treated dogs, cumulative iv) is recorded as “inhibited the pressor response to AII at the two higher doses”. Moreover, the “decrease in blood pressure after furosemide” value in test [1] (furosemide-treated dogs, cumulative iv 0.3 to 3 mg/kg) was “significant decrease in blood pressure in a dose-dependent manner”. The blood pressure lowering entry in test [1] (normotensive conscious dogs (n=4), cumulative iv 0.3 to 3 mg/kg, before furosemide) is listed as “did not lower blood pressure”. Also, in test [1] (normotensive conscious dogs, cumulative iv 0.3 to 3 mg/kg, AII 0.1 μg/kg iv, 10 min post dose, before furosemide), the “inhibition of pressor response to AII” value is listed as “effective in inhibiting the pressor response to AII”.

Turning to `C[C@H](CS)C(=O)N1CCC[C@H]1C(=O)O` [captopril], the “effect on renal vasoconstrictor effect of indomethacin” value in test [4] (dogs with non-hypotensive hemorrhage) is “reverse the renal vasoconstrictor effect of indomethacin”.
